According to publication PMC6504579 (Journal of immunology (Baltimore, Md. : 1950), 2019):
Like-named read-outs stand apart in the source and are kept apart here.

Format: in vitro ADME, human
Conditions: for ATK9 epitope produced (share of degradation products): representative donor; for degradation rate of substrate in CD3/CD28-stimulated vs non-stimulated extracts: paired CD4 T cell cytosolic extracts, 37 °C, pH 7.4, LC-MS/MS; for time of peak production of N-extended TW10 precursors: sampled at 2, 5 and 8 h
[1] = CD3/CD28-stimulated extract, 120 min
[2] = CD3/CD28-stimulated extract, 180 min
[3] = non-stimulated extract, 120 min
[4] = non-stimulated extract, 180 min

SMILES: CC[C@H](C)[C@H](NC(=O)[C@H](C)NC(=O)[C@@H]1CCCN1C(=O)[C@H](CO)NC(=O)CNC(=O)[C@H](CCCCN)NC(=O)[C@@H](N)Cc1c[nH]c2ccccc12)C(=O)N[C@@H](Cc1ccccc1)C(=O)N[C@@H](CCC(N)=O)C(=O)N[C@@H](CO)C(=O)N[C@@H](CO)C(=O)N[C@@H](CCSC)C(=O)N[C@H](C(=O)N[C@@H](CCCCN)C(=O)N[C@H](C(=O)N[C@@H](CC(C)C)C(=O)O)[C@@H](C)CC)[C@@H](C)O [5-ATK9–2]
- antitopes produced (share of degradation products) [1]: 66.43%
- ATK9 epitope produced (share of degradation products) [1]: 0.49%
- antitopes produced (share of degradation products) [2]: 79.38%
- ATK9 epitope produced (share of degradation products) [2]: 0.54%
- antitopes produced (share of degradation products) [3]: 48.1%
- ATK9 epitope produced (share of degradation products) [3]: 1.05%
- antitopes produced (share of degradation products) [4]: 57.7%
- ATK9 epitope produced (share of degradation products) [4]: 1.06%
- degradation rate of substrate in CD3/CD28-stimulated vs non-stimulated extracts: degraded faster

SMILES: CC[C@H](C)[C@H](NC(=O)[C@H](CCC(N)=O)NC(=O)[C@H](CCC(=O)O)NC(=O)[C@H](CCC(N)=O)NC(=O)[C@H](CC(C)C)NC(=O)[C@@H](NC(=O)[C@H](CO)NC(=O)[C@@H](NC(=O)[C@@H](NC(=O)CNC(=O)[C@H](C)NC(=O)[C@@H](NC(=O)[C@@H](N)CC(=O)O)[C@@H](C)CC)[C@@H](C)O)[C@@H](C)O)[C@@H](C)O)C(=O)NCC(=O)N[C@@H](Cc1c[nH]c2ccccc12)C(=O)N[C@@H](CCSC)C(=O)N[C@H](C(=O)N[C@@H](CC(N)=O)C(=O)O)[C@@H](C)O [5-TW10–3]
- time of peak production of N-extended TW10 precursors (activated extracts): 2 h
- time of peak production of N-extended TW10 precursors (extracts from resting CD4 T cells): 5 h
- degradation rate of substrate in CD3/CD28-stimulated vs non-stimulated extracts: faster degradation rates
- detection of optimal TW10 at 2, 5 and 8 hours (paired resting and activated extracts): only in activated extracts
